Measurements taken from patent US4798823A, “New cyclosporin analogs with modified "C-9 amino acids"” (Merck & Co., Inc., priority 1987, dated 1989).

Biological target: cyclophilin (Bos taurus, UniProt P62935)
Test: Cyclophilin binding assay
Details: relative to cyclosporin A (CsA); average of multiple assays
From the text: ^a This assay is described in detail by R. Handschumacher et. al.,

cyclophilin, sequence (P62935 whole entry): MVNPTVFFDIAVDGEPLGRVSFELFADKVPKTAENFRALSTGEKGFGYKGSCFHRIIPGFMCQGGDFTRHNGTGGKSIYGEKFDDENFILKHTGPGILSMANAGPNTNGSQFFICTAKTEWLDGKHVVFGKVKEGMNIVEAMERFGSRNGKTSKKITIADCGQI

cyclo[[](((2S,3R,[4R]4S)-N,4-dimethyl-4-(methylthiomethyl)-threonyl)-L-2-aminobutyrylsarcosyl-N-methyl-L-leucyl-L-valyl-N-methyl-L-leucyl-L-alanyl-D- alanyl-N-methyl-L-leucyl-N-methyl-L-leucyl-N-methyl-L-valyl-[]]) [(a)]
CYCLOPHILIN BINDING (% OF CsA Activity): 179 % OF CsA Activity
